Assay results taken from ChEMBL document CHEMBL1275456, “Metallo-beta-lactamase gene bla(IMP-15) in a class 1 integron, In95, from Pseudomonas aeruginosa clinical isolates from a hospital in Mexico” (2008).
In brackets after ≈: the same amount, converted by molar mass.

How the values were obtained:
Format in all cases: functional
Pseudomonas aeruginosa [1] = experiment: Antimicrobial activity against Pseudomonas aeruginosa blood isolate 4667 containing PFGE clone A expressing beta-lactamase IMP-15 by broth microdilution method
Pseudomonas aeruginosa [2] = experiment: Antimicrobial activity against Pseudomonas aeruginosa urine isolate 4698 containing PFGE clone A expressing beta-lactamase IMP-15 by broth microdilution method
Pseudomonas aeruginosa [3] = experiment: Antimicrobial activity against Pseudomonas aeruginosa catheter isolate 4680 containing PFGE clone A2 expressing beta-lactamase IMP-15 by broth microdilution method
Pseudomonas aeruginosa [4] = experiment: Antimicrobial activity against Pseudomonas aeruginosa clinical isolates assessed as resistant isolates by agar dilution method
Pseudomonas aeruginosa [5] = experiment: Antimicrobial activity against Pseudomonas aeruginosa secretion isolate 4682-1 containing PFGE clone A expressing beta-lactamase IMP-15 by broth microdilution method
Pseudomonas aeruginosa [6] = experiment: Antimicrobial activity against Pseudomonas aeruginosa blood isolate 4677 containing PFGE clone A expressing beta-lactamase IMP-15 by broth microdilution method
Pseudomonas aeruginosa [7] = experiment: Antimicrobial activity against Pseudomonas aeruginosa catheter isolate 4696 containing PFGE clone A expressing beta-lactamase IMP-15 by broth microdilution method
Pseudomonas aeruginosa [8] = experiment: Antimicrobial activity against Pseudomonas aeruginosa urine isolate 4706 containing PFGE clone A expressing beta-lactamase IMP-15 by broth microdilution method
Pseudomonas aeruginosa [9] = experiment: Antimicrobial activity against Pseudomonas aeruginosa urine isolate 4663 expressing beta-lactamase IMP-15 by broth microdilution method
Pseudomonas aeruginosa [10] = experiment: Antimicrobial activity against Pseudomonas aeruginosa secretion isolate 4688 containing PFGE clone A1 expressing beta-lactamase IMP-15 by broth microdilution method
Pseudomonas aeruginosa [11] = experiment: Antimicrobial activity against Pseudomonas aeruginosa blood isolate 4659 containing PFGE clone A2 expressing beta-lactamase IMP-15 by broth microdilution method
Pseudomonas aeruginosa [12] = experiment: Antimicrobial activity against Pseudomonas aeruginosa pleural fluid isolate 4679 containing PFGE clone A1 expressing beta-lactamase IMP-15 by broth microdilution method
Pseudomonas aeruginosa [13] = experiment: Antimicrobial activity against Pseudomonas aeruginosa secretion isolate 4658 containing PFGE clone A1 expressing beta-lactamase IMP-15 by broth microdilution method
Pseudomonas aeruginosa [14] = experiment: Antimicrobial activity against Pseudomonas aeruginosa secretion isolate 4703 containing PFGE clone A1 expressing beta-lactamase IMP-15 by broth microdilution method
Pseudomonas aeruginosa [15] = experiment: Antimicrobial activity against Pseudomonas aeruginosa secretion isolate 4682-1 containing PFGE clone A expressing beta-lactamase IMP-15 by broth microdilution method in presence of beta-lactamase inhibitor Tazobactam
Pseudomonas aeruginosa [16] = experiment: Antimicrobial activity against Pseudomonas aeruginosa clinical isolates assessed as resistant isolates by agar dilution method in presence of beta-lactamase inhibitor Tazobactam
Pseudomonas aeruginosa [17] = experiment: Antimicrobial activity against Pseudomonas aeruginosa secretion isolate 4658 containing PFGE clone A1 expressing beta-lactamase IMP-15 by broth microdilution method in presence of beta-lactamase inhibitor Tazobactam
Pseudomonas aeruginosa [18] = experiment: Antimicrobial activity against Pseudomonas aeruginosa urine isolate 4706 containing PFGE clone A expressing beta-lactamase IMP-15 by broth microdilution method in presence of beta-lactamase inhibitor Tazobactam; conditions: isolate 4706, Urine
Pseudomonas aeruginosa [19] = experiment: Antimicrobial activity against Pseudomonas aeruginosa urine isolate 4663 expressing beta-lactamase IMP-15 by broth microdilution method in presence of beta-lactamase inhibitor Tazobactam; conditions: isolate 4663, Urine
Pseudomonas aeruginosa [20] = experiment: Antimicrobial activity against Pseudomonas aeruginosa catheter isolate 4696 containing PFGE clone A expressing beta-lactamase IMP-15 by broth microdilution method in presence of beta-lactamase inhibitor Tazobactam
Pseudomonas aeruginosa [21] = experiment: Antimicrobial activity against Pseudomonas aeruginosa secretion isolate 4703 containing PFGE clone A1 expressing beta-lactamase IMP-15 by broth microdilution method in presence of beta-lactamase inhibitor Tazobactam
Pseudomonas aeruginosa [22] = experiment: Antimicrobial activity against Pseudomonas aeruginosa blood isolate 4677 containing PFGE clone A expressing beta-lactamase IMP-15 by broth microdilution method in presence of beta-lactamase inhibitor Tazobactam
Pseudomonas aeruginosa [23] = experiment: Antimicrobial activity against Pseudomonas aeruginosa blood isolate 4659 containing PFGE clone A2 expressing beta-lactamase IMP-15 by broth microdilution method in presence of beta-lactamase inhibitor Tazobactam
Pseudomonas aeruginosa [24] = experiment: Antimicrobial activity against Pseudomonas aeruginosa blood isolate 4667 containing PFGE clone A expressing beta-lactamase IMP-15 by broth microdilution method in presence of beta-lactamase inhibitor Tazobactam
Pseudomonas aeruginosa [25] = experiment: Antimicrobial activity against Pseudomonas aeruginosa urine isolate 4698 containing PFGE clone A expressing beta-lactamase IMP-15 by broth microdilution method in presence of beta-lactamase inhibitor Tazobactam; conditions: isolate 4698, Urine
Pseudomonas aeruginosa [26] = experiment: Antimicrobial activity against Pseudomonas aeruginosa catheter isolate 4680 containing PFGE clone A2 expressing beta-lactamase IMP-15 by broth microdilution method in presence of beta-lactamase inhibitor Tazobactam
Pseudomonas aeruginosa [27] = experiment: Antimicrobial activity against Pseudomonas aeruginosa pleural fluid isolate 4679 containing PFGE clone A1 expressing beta-lactamase IMP-15 by broth microdilution method in presence of beta-lactamase inhibitor Tazobactam; conditions: isolate 4679, Pleural fluid
Pseudomonas aeruginosa [28] = experiment: Antimicrobial activity against Pseudomonas aeruginosa secretion isolate 4688 containing PFGE clone A1 expressing beta-lactamase IMP-15 by broth microdilution method in presence of beta-lactamase inhibitor Tazobactam

Row | Compound | MIC (Pseudomonas aeruginosa [1]) [µg/mL] | MIC (Pseudomonas aeruginosa [2]; isolate 4698, Urine) [µg/mL] | MIC (Pseudomonas aeruginosa [3]) [µg/mL] | Activity (Pseudomonas aeruginosa [4]) [%] | MIC (Pseudomonas aeruginosa [5]) [µg/mL] | MIC (Pseudomonas aeruginosa [6]) [µg/mL] | MIC (Pseudomonas aeruginosa [7]) [µg/mL] | MIC (Pseudomonas aeruginosa [8]; isolate 4706, Urine) [µg/mL] | MIC (Pseudomonas aeruginosa [9]; isolate 4663, Urine) [µg/mL] | MIC (Pseudomonas aeruginosa [10]) [µg/mL] | MIC (Pseudomonas aeruginosa [11]) [µg/mL] | MIC (Pseudomonas aeruginosa [12]) [µg/mL] | MIC (Pseudomonas aeruginosa [13]) [µg/mL] | MIC (Pseudomonas aeruginosa [14]) [µg/mL] | also measured
1 | NCC[C@H](O)C(=O)N[C@@H]1C[C@H](N)[C@@H](O[C@H]2O[C@H](CN)[C@@H](O)[C@H](O)[C@H]2O)[C@H](O)[C@H]1O[C@H]1O[C@H](CO)[C@@H](O)[C@H](N)[C@H]1O [AMIKACIN] | > 128 | > 128 | > 128 | 51 | > 128 | > 128 | > 128 | 64 (≈ 109 µM) | 4 (≈ 6.83 µM) | > 128 | > 128 | > 128 | > 128 | 128 (≈ 219 µM) | –
2 | C[C@H]1[C@H](NC(=O)/C(=N\OC(C)(C)C(=O)O)c2csc(N)n2)C(=O)N1S(=O)(=O)O [AZTREONAM] | – | – | – | – | – | – | – | – | 8 (≈ 18.4 µM) | – | – | – | – | – | –
3 | CC(C)(O/N=C(\C(=O)N[C@@H]1C(=O)N2C(C(=O)[O-])=C(C[n+]3ccccc3)CS[C@H]12)c1csc(N)n1)C(=O)O [CEFTAZIDIME] | > 128 | > 128 | > 128 | 61 | > 128 | > 128 | > 128 | > 128 | > 128 | > 128 | > 128 | > 128 | > 128 | > 128 | –
4 | C[C@@H](O)[C@H]1C(=O)N2C(C(=O)O)=C(SCCNC=N)C[C@H]12 [IMIPENEM ANHYDROUS] | > 128 | > 128 | 128 (≈ 428 µM) | 100 | 128 (≈ 428 µM) | > 128 | 128 (≈ 428 µM) | 32 (≈ 107 µM) | 32 (≈ 107 µM) | > 128 | > 128 | 128 (≈ 428 µM) | 128 (≈ 428 µM) | > 128 | –
5 | C[C@@H](O)[C@H]1C(=O)N2C(C(=O)O)=C(S[C@@H]3CN[C@H](C(=O)N(C)C)C3)[C@H](C)[C@H]12 [MEROPENEM] | 128 (≈ 334 µM) | 128 (≈ 334 µM) | 128 (≈ 334 µM) | 87 | 128 (≈ 334 µM) | 128 (≈ 334 µM) | 128 (≈ 334 µM) | 128 (≈ 334 µM) | > 128 | 128 (≈ 334 µM) | 128 (≈ 334 µM) | 128 (≈ 334 µM) | 128 (≈ 334 µM) | 128 (≈ 334 µM) | –
6 | CCN1CCN(C(=O)N[C@@H](C(=O)N[C@@H]2C(=O)N3[C@@H]2SC(C)(C)[C@@H]3C(=O)O)c2ccccc2)C(=O)C1=O [PIPERACILLIN] | 64 (≈ 124 µM) | 64 (≈ 124 µM) | 64 (≈ 124 µM) | 19 | 64 (≈ 124 µM) | 64 (≈ 124 µM) | 64 (≈ 124 µM) | 64 (≈ 124 µM) | 64 (≈ 124 µM) | 64 (≈ 124 µM) | 64 (≈ 124 µM) | 64 (≈ 124 µM) | 64 (≈ 124 µM) | 64 (≈ 124 µM) | MIC (Pseudomonas aeruginosa [15]): 64 µg/mL; Activity (Pseudomonas aeruginosa [16]): 14%; MIC (Pseudomonas aeruginosa [17]): 64 µg/mL; MIC (Pseudomonas aeruginosa [18]): 64 µg/mL; MIC (Pseudomonas aeruginosa [19]): 64 µg/mL; MIC (Pseudomonas aeruginosa [20]): 64 µg/mL; MIC (Pseudomonas aeruginosa [21]): 64 µg/mL; MIC (Pseudomonas aeruginosa [22]): 64 µg/mL; MIC (Pseudomonas aeruginosa [23]): 64 µg/mL; MIC (Pseudomonas aeruginosa [24]): 64 µg/mL; MIC (Pseudomonas aeruginosa [25]): 64 µg/mL; MIC (Pseudomonas aeruginosa [26]): 64 µg/mL; MIC (Pseudomonas aeruginosa [27]): 64 µg/mL; MIC (Pseudomonas aeruginosa [28]): 64 µg/mL
7 | GENTAMICIN | 128 | – | 128 | 54 | > 128 | > 128 | > 128 | – | – | > 128 | > 128 | 128 | 128 | > 128 | MIC (Pseudomonas aeruginosa [2]): > 128 µg/mL; MIC (Pseudomonas aeruginosa [8]): > 128 µg/mL; MIC (Pseudomonas aeruginosa [9]): 128 µg/mL
